The record followed here is the kinase profiling compilation of Christmann-Franck et al. (2016).

Test in all cases: KINOMEscan competition binding
One experiment has as its target MAP3K5 (human) (UniProt Q99683). The following applies: compound 10.0 µM.
The next experiment concerns the target MAP3K12 (human) (UniProt Q12852). The following applies: compound 10.0 µM.
Another experiment addresses RPS6KA1 KD1 (human) (UniProt Q15418). The following applies: compound 10.0 µM.
The next experiment concerns the target CDK19 (human) (UniProt Q9BWU1). As to conditions: compound 10.0 µM.
The next experiment has as its target MYLK3 (human) (UniProt Q32MK0). The following applies: compound 10.0 µM.
For a further experiment, the target named is CSNK1G2 (human) (UniProt P78368). As to conditions: compound 10.0 µM.
Chain of CSNK1G2 (human) (P78368 whole entry, looked up): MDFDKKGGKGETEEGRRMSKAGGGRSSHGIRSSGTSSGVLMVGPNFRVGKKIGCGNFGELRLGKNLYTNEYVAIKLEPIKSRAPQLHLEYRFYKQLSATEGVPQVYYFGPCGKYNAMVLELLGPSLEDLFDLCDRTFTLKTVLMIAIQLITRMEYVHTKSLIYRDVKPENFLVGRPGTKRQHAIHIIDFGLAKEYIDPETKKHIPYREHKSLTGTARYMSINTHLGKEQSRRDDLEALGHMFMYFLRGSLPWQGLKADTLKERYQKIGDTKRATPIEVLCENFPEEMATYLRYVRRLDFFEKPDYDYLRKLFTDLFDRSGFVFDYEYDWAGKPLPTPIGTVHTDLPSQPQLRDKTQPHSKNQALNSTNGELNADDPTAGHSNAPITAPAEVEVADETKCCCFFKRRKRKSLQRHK
The subject of the next experiment is ULK3 (mouse). As to conditions: compound 10.0 µM; accession and sequence are those of the human protein.

Broadly, the inhibition is the change of the read-out against control, counted positive when it falls. A high value points to a response far below the control.

Chain of RPS6KA1 KD1 (human) (Q15418 whole entry, looked up): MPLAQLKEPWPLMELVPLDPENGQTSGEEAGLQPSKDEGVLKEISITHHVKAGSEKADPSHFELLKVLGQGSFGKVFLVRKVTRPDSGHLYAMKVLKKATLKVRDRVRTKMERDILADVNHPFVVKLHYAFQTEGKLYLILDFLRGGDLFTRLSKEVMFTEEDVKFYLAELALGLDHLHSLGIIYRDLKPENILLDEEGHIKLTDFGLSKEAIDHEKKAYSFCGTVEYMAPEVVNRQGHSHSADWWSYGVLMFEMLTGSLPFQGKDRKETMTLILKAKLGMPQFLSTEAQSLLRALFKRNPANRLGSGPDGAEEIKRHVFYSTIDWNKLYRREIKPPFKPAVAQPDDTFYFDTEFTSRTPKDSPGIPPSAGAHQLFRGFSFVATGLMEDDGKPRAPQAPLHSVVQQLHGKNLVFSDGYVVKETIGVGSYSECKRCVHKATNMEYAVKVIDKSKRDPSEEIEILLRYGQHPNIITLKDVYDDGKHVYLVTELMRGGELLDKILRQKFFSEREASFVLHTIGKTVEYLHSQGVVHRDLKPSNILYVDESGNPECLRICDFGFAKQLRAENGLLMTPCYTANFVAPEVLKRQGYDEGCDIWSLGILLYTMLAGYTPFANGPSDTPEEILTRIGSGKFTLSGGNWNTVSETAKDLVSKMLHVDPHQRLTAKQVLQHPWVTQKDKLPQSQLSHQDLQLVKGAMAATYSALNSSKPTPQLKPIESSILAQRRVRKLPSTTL
Chain of MAP3K12 (human) (Q12852 whole entry, looked up): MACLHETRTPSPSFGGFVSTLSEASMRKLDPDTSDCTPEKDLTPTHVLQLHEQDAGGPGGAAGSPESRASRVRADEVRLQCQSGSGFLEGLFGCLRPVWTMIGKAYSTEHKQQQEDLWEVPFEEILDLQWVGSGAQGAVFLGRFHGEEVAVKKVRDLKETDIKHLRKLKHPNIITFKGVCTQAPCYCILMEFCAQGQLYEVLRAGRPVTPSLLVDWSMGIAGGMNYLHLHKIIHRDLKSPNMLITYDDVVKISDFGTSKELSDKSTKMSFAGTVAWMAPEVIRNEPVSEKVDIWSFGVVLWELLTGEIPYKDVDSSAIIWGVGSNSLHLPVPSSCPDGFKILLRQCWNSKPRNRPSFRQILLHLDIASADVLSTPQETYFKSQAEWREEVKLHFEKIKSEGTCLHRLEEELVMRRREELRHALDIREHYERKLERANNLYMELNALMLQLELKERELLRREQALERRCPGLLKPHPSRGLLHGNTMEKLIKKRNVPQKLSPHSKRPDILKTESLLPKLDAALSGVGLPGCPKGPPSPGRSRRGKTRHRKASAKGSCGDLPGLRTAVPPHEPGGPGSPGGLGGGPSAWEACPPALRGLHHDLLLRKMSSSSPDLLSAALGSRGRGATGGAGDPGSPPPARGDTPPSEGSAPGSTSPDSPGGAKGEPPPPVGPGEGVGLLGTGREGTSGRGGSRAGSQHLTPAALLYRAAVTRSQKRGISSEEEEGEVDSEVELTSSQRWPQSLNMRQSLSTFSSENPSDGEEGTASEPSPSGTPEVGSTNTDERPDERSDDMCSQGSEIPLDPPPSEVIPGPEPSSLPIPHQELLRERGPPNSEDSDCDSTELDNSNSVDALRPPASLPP
Chain of MAP3K5 (human) (Q99683 whole entry, looked up): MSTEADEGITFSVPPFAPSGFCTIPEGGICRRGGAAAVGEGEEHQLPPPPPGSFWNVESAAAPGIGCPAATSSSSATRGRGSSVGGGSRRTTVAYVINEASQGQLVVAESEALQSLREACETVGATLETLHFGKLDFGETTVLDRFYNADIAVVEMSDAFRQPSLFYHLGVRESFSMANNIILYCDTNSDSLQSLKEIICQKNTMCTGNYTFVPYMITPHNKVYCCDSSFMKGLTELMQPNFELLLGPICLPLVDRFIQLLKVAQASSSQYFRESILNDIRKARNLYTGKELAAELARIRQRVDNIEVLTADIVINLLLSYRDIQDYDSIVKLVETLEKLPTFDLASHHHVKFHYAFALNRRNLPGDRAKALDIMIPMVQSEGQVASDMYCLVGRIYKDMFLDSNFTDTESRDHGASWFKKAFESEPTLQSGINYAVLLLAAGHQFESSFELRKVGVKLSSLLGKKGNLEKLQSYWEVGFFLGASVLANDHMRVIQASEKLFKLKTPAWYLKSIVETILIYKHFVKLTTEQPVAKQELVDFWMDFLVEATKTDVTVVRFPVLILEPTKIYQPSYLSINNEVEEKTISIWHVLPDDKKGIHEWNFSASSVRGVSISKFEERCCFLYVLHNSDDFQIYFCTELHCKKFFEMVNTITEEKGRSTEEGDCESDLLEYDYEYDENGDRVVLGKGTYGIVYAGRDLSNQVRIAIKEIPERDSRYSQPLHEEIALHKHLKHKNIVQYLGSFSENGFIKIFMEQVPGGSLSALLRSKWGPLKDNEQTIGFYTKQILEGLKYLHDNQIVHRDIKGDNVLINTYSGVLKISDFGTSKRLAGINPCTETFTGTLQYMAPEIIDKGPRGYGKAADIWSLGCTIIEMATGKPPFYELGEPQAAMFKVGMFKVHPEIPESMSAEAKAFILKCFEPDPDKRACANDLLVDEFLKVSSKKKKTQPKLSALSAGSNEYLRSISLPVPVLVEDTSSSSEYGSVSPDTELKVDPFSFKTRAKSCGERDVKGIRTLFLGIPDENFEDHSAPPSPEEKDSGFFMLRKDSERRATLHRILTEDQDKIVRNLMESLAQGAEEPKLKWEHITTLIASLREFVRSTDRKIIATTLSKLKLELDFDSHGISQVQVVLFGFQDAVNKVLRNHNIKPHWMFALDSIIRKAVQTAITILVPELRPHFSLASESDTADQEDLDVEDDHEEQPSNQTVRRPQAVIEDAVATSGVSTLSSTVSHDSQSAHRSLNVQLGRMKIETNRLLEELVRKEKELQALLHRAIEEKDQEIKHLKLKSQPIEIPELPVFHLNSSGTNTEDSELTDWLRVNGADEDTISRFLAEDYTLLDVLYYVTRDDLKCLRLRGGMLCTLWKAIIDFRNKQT
Chain of CDK19 (human) (Q9BWU1 whole entry, looked up): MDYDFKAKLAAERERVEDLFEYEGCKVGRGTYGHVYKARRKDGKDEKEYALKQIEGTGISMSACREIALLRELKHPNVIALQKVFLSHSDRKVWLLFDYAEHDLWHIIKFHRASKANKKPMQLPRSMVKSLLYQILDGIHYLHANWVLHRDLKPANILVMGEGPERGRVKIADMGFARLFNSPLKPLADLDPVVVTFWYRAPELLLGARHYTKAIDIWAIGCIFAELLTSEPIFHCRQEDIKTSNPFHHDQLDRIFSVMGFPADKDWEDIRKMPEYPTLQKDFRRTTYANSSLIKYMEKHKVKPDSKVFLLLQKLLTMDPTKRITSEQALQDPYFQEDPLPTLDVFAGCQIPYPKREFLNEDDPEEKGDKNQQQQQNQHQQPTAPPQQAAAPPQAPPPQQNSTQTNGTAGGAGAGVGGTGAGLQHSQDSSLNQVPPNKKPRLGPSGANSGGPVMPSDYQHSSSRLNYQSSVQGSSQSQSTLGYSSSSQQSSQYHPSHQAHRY
Chain of MYLK3 (human) (Q32MK0 whole entry, looked up): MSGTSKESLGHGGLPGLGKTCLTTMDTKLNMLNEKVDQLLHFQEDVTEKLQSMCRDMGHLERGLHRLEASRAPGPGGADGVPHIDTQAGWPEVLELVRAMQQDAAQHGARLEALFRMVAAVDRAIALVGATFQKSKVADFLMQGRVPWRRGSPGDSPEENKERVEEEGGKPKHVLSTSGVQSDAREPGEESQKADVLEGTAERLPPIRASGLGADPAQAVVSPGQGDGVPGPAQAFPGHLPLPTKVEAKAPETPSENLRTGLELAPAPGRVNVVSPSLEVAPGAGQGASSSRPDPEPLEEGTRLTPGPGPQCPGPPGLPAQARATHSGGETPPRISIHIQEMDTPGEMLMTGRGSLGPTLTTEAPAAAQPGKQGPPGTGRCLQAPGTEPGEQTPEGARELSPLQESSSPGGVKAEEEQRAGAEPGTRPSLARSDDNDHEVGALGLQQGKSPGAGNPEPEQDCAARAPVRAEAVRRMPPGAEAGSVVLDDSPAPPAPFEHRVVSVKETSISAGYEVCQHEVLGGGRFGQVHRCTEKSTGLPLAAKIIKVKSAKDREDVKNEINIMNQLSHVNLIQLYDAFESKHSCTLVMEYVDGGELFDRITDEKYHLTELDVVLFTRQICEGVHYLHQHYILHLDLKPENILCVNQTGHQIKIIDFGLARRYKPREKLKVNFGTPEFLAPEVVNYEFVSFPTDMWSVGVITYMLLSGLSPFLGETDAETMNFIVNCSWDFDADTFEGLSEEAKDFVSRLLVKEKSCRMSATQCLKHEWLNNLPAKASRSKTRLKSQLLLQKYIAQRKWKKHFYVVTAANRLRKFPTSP

For the compound `O[C@H]1CC[C@H](Nc2nccc(-c3n[nH]c4ccccc34)n2)CC1`, the inhibition of binding on MAP3K5 (human) was below 50%.

Consider `O[C@H]1CC[C@H](Nc2nccc(-n3ccc4ccccc43)n2)CC1`, for which the inhibition on MAP3K12 (human) is below 50%. The same compound had an inhibition of binding on RPS6KA1 KD1 (human) below 50%.

In the case of `O[C@H]1CC[C@H](Nc2nccc(-n3ncc4ccccc43)n2)CC1`, the inhibition at CDK19 (human) and at MAP3K12 (human) was below 50% throughout. In addition, the inhibition of binding on MYLK3 (human) and on RPS6KA1 KD1 (human) was below 50% each time.

As for `O[C@H]1CC[C@H](Nc2nccc(-n3nnc4ccccc43)n2)CC1`, the inhibition of binding on CSNK1G2 (human) and on RPS6KA1 KD1 (human) was below 50% in each case. Also, the inhibition on MAP3K12 (human) was below 50%.

As for `O=C([C@H]1CC[C@H](Nc2nccc(-n3nnc4ccccc43)n2)CC1)N1CCOCC1`, in the experiment on ULK3 (mouse), the inhibition of binding is below 50%.

With `N[C@H]1CC[C@H](Nc2nccc(-n3nnc4ccccc43)n2)CC1`, the inhibition of binding in the experiment on ULK3 (mouse) was below 50%.
